Experimental data taken from ChEMBL document CHEMBL1201862, “PubChem BioAssay data set” (2004).
Activity calls are given as the source filed them.

How the values were obtained:
[1] = Luminescence Cell-Based Dose Response HTS to Identify Inhibitors of 5'UTR Stem-Loop Driven Prion Protein mRNA Translation in H4 Neuroglioblastoma Cells. [Related pubchem assays: 1827 (Project Summary), 1813 (Primary HTS)]; type: functional
HEK293 [2] = experiment: optical interference in Abeta FP readout, dose response, artefact control for IDE activator project, biochemical, fluorescence polarization (AID 588442); type: functional, cell-based; conditions: Homo sapiens
[3] = inhibitors of firefly luciferase expression or activity, dose response, H4 neuroglioma cells, luminescence (AID 1990); type: functional, cell-based
Insulin-degrading enzyme [4] = molecular target: T1, Insulin-degrading enzyme (Homo sapiens, UniProt P14735); experiment: activators of recombinant IDE enzyme, dose response, counter-screen for IDE activator project, biochemical, fluorescence polarization (AID 588681)
T1 sequence (P14735 whole entry): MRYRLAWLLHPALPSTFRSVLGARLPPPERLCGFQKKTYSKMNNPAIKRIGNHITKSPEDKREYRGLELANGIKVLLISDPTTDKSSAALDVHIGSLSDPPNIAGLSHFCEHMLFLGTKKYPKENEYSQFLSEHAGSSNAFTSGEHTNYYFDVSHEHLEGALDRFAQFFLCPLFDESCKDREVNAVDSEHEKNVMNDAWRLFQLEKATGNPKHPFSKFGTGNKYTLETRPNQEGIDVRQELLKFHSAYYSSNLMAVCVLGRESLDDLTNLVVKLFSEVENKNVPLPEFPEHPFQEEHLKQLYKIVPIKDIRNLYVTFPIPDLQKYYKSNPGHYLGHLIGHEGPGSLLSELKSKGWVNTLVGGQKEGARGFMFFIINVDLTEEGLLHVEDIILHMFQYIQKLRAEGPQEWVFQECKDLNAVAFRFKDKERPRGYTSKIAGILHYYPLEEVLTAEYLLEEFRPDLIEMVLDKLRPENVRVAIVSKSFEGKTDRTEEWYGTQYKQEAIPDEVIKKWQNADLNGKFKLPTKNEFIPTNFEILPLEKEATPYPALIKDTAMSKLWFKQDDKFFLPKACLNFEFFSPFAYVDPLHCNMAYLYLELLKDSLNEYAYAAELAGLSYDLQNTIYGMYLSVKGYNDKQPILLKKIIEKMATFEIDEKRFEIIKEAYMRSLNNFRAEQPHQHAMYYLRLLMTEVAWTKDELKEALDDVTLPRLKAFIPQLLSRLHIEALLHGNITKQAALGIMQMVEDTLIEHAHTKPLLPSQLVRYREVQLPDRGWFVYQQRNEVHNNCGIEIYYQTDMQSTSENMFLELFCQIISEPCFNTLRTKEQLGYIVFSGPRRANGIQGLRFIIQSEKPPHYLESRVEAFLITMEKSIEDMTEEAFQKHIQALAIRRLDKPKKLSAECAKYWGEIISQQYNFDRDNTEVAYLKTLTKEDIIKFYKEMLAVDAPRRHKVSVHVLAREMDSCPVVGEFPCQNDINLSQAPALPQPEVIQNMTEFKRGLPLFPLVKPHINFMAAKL

[5] = molecular target: T2, Ubiquitin-conjugating enzyme E2 N (Homo sapiens, UniProt P61088); type: functional;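 also: Dose-response confirmation in a TR-FRET assay detecting UBC13-driven polyubiquitin chain formation, inhibition measured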
T2 sequence (P61088 whole entry): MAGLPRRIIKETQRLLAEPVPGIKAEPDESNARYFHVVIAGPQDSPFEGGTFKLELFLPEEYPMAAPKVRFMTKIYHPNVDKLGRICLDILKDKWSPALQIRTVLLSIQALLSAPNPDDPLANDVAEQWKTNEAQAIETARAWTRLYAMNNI

BJ [6] = experiment: cytotoxicity toward Ras-transformed BJeLR fibroblasts, dose response, cell-based, alamar blue fluorescence, cherrypicked samples (AID 2631); type: functional; conditions: Homo sapiens;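 also: confirmatory dose-response assay in RAS-dependent BJ fibroblasts engineered with TERT, LT and ST, with cytotoxicity read by fluorescence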
[7] = inhibitors of SNCA 5'UTR-driven reporter translation, confirmation, H4 neuroglioma cells, luminescence (AID 1988); type: functional, cell-based
[8] = cytotoxicity toward DRD oncogenic fibroblasts, dose response, cell-based, non-viral oncogenic, luminescence (AID 1934); type: functional; conditions: Homo sapiens
INS1 = experiment: beta cell apoptosis inhibitors, cytokine rescue, dose response, luminescence, retest (AID 449756); type: functional, cell-based; conditions: Rattus norvegicus;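 also: cell death triggered by IL-1 beta plus TNF-alpha plus IFN-gamma mixture; protective hits raise ATP signal compared with cytokine alone wells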
BJ [9] = experiment: cells; type: functional, cell-based; conditions: Homo sapiens
HEK293 [10] = experiment: HEK cell cytotoxicity by LDH release, dose response, cytotoxicity control for IDE activator project, fluorescence, HEK cells (AID 588440); type: functional, cell-based; conditions: Homo sapiens;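 also: cytotoxicity by LDH release measuring loss of membrane integrity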
BJ [11] = experiment: cytotoxicity toward BJ-TERT-LT-ST fibroblasts, dose response, cell-based, RAS-independent, luminescence (AID 1935); type: functional; conditions: Homo sapiens;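 also: BJ fibroblasts immortalized with TERT plus LT and ST oncogenes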
BJ [12] = experiment: cytotoxicity toward BJ-TERT fibroblasts, dose response, cell-based, RAS-independent, luminescence (AID 1933); type: functional; conditions: Homo sapiens
Insulin-degrading enzyme [13] = molecular target: T1, Insulin-degrading enzyme; experiment: activators of endogenous IDE in HEK cells, dose response, cell-based, fluorescence polarization (AID 588439); type: functional
[14] = molecular target: G-protein coupled receptor 55 (Homo sapiens, UniProt Q9Y2T6); experiment: GPR55 antagonists blocking LPI-driven arrestin recruitment, primary screen, imaging, U2OS, beta-arrestin-GFP, LPI agonist (AID 2013); type: functional;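 also: antagonist potency measured as reduced agonist-driven arrestin aggregation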
[15] = molecular target: T3, High affinity choline transporter 1 (Homo sapiens, UniProt Q9GZV3); experiment: CHT inhibitors, dose response, cell-based, 10-point CRC, membrane potential dye (AID 588401); type: functional;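 also: membrane potential dye fluorescence of choline-evoked depolarization via CHT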
T3 sequence (Q9GZV3 whole entry): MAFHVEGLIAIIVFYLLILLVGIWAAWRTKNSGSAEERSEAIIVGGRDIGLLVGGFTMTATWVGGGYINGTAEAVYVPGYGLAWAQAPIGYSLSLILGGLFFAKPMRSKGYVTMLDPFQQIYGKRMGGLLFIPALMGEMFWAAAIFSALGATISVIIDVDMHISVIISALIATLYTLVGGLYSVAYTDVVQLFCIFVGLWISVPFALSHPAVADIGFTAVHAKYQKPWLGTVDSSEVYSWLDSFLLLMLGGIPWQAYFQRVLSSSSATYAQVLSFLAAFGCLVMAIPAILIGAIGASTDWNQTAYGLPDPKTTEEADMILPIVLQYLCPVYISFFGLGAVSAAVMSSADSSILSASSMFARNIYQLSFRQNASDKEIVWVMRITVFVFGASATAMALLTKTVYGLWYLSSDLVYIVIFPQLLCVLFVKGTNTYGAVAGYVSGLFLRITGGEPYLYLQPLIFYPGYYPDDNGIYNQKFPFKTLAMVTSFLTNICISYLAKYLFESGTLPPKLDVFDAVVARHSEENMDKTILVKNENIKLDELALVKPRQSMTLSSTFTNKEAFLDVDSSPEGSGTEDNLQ

[16] = molecular target: T3, High affinity choline transporter 1; experiment: CHT inhibitors, dose response, cell-based, 5-point CRC, membrane potential dye (AID 504840); type: functional
[17] = molecular target: T4, Polyadenylate-binding protein 1 (Homo sapiens, UniProt P11940); experiment: PABP1 MLLE–PAM2 interaction inhibitors, dose response, miRNA deadenylation inhibitor project, biochemical, fluorescence polarization, Cy5-PAM2 peptide, secondary (AID 602260); type: functional; conditions: read-out: IC50_Mean
T4 sequence (P11940 whole entry): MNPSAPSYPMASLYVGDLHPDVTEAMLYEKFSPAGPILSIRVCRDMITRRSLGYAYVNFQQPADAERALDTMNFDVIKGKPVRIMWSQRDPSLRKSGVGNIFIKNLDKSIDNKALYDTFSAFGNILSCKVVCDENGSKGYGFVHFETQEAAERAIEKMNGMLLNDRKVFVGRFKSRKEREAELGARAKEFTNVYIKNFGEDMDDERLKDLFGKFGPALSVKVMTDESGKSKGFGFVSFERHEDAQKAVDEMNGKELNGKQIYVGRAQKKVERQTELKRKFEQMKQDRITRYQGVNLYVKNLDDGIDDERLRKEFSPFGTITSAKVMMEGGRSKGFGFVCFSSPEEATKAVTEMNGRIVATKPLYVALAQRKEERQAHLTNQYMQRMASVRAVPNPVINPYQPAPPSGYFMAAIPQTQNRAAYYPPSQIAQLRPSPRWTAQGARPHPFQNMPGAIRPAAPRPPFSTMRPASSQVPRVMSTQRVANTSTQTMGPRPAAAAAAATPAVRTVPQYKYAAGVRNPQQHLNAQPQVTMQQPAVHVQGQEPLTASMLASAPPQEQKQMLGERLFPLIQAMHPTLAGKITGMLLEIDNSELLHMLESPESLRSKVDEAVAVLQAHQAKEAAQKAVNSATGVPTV

[18] = molecular target: T4, Polyadenylate-binding protein 1; experiment: PABP1 MLLE–PAM2 binding inhibitor potency, dose response, biochemical, fluorescence polarization, FITC-PAM2 peptide (AID 602259); type: functional; conditions: read-out: IC50_Mean
[19] = molecular target: Protein disulfide-isomerase (Homo sapiens, UniProt P07237); experiment: PDI inhibitors, insulin aggregation turbidity, dose response, biochemical, absorbance, cherry-picked samples (AID 602350); type: functional
[20] = molecular target: Multidrug resistance protein CDR2 (Candida albicans (strain SC5314 / ATCC MYA-2876) (Yeast), UniProt P78595); experiment: CaCDR2 efflux pump inhibitors in yeast, dose response, S. cerevisiae AD1-8u, singleplex, Cherry Pick1 hits (AID 588604); type: functional
[21] = molecular target: T3, High affinity choline transporter 1; experiment: CHT activators, dose response, cell-based, 10-point CRC, membrane potential dye (AID 602376); type: functional
[22] = molecular target: Melanin-concentrating hormone receptor 1 (Homo sapiens, UniProt Q99705); experiment: Late-stage fluorescence-based counterscreen for antagonists of the G-protein coupled receptor 7 (GPR7): cell-based dose response assay to identify antagonists of the melanin-concentrating hormone receptor 1 (MCHR1) Set 5.; type: functional
[23] = molecular target: Ribosomal protein S6 kinase alpha-3 (Homo sapiens, UniProt P51812); type: functional;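 also: measured within a kinome-wide profiling panel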
[24] = molecular target: MAP kinase-activated protein kinase 2 (Homo sapiens, UniProt P49137); type: functional;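 also: measured as one member of a kinome-wide kinase panel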
Sequence of MAP kinase-activated protein kinase 2 (P49137 whole entry): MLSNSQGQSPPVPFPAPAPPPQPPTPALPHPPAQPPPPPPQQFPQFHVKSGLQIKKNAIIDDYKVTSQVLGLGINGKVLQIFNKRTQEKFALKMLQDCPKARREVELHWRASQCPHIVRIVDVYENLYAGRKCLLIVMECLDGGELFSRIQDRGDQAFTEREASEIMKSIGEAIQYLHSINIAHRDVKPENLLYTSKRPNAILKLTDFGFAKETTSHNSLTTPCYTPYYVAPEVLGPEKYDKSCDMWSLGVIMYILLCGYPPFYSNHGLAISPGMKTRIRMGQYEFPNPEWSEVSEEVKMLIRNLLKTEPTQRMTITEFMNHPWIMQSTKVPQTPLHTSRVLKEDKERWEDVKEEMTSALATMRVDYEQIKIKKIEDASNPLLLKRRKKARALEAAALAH

[25] = molecular target: Glycogen synthase kinase-3 beta (Homo sapiens, UniProt P49841); type: functional;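 also: value comes from a broad kinome profiling panel, with GSK3B as the panel member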
[26] = molecular target: Ribosomal protein S6 kinase beta-1 (Homo sapiens, UniProt P23443); type: functional;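 also: measured as one member of a kinome-wide profiling panel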
Sequence of Ribosomal protein S6 kinase beta-1 (P23443 whole entry): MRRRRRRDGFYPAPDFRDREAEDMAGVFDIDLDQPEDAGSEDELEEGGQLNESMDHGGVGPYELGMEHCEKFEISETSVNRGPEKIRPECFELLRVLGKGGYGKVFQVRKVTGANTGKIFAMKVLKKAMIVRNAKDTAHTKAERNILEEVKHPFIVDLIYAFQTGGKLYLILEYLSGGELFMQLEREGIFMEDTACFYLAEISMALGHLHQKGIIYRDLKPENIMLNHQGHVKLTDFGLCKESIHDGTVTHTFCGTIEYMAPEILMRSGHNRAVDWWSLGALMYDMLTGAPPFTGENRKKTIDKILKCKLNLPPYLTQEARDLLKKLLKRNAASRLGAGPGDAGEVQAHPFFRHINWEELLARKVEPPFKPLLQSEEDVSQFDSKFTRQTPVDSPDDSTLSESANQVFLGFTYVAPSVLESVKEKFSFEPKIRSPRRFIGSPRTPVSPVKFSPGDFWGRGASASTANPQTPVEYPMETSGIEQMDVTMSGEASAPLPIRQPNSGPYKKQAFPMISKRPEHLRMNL

[27] = molecular target: T5, DNA dC->dU-editing enzyme APOBEC-3A (Homo sapiens, UniProt P31941); experiment: SAR analysis of small molecule inhibitors of APOBEC3A DNA Deaminase via a fluorescence-based single-stranded DNA deaminase assay.; type: functional; conditions: read-out: IC50_Mean
T5 sequence (P31941 whole entry): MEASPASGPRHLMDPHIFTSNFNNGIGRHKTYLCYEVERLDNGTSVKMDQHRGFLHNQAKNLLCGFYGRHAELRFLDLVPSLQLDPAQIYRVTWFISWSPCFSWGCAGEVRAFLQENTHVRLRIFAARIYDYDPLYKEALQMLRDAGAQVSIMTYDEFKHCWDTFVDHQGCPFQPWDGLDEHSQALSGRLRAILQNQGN

[28] = molecular target: T6, DNA dC->dU-editing enzyme APOBEC-3G (Homo sapiens, UniProt Q9HC16); experiment: APOBEC3G deaminase inhibitors, SAR follow-up, biochemical, fluorescence, single-stranded DNA substrate (AID 602136); type: functional; conditions: read-out: IC50_Mean
T6 sequence (Q9HC16 whole entry): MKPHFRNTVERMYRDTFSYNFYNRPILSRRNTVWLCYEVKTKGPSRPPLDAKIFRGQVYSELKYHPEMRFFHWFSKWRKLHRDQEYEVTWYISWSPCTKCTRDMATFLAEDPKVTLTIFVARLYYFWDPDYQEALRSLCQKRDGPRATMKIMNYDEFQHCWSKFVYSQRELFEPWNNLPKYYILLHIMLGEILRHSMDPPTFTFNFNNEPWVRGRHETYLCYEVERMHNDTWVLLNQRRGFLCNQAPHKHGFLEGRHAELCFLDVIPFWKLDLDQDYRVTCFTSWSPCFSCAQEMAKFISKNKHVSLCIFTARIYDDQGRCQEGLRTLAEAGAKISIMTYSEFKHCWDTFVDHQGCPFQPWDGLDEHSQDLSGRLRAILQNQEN

[29] = molecular target: Cyclin-dependent kinase 19 (Homo sapiens, UniProt Q9BWU1); experiment: Navigating the Kinome. Panel member name: CDC2L6; type: functional
[30] = molecular target: ALK tyrosine kinase receptor (Homo sapiens, UniProt Q9UM73); type: functional;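 also: ALK tested as one member of a kinase panel screen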
[31] = molecular target: T6, DNA dC->dU-editing enzyme APOBEC-3G; experiment: SAR analysis of small molecule inhibitors of APOBEC3G DNA Deaminase via a fluorescence-based single-stranded DNA deaminase assay - Set 2.; type: functional; conditions: read-out: IC50_Mean
[32] = molecular target: T5, DNA dC->dU-editing enzyme APOBEC-3A; experiment: SAR analysis of small molecule inhibitors of APOBEC3A DNA Deaminase via a fluorescence-based single-stranded DNA deaminase assay - Set 2.; type: functional; conditions: read-out: IC50_Mean
[33] = molecular target: Casein kinase I isoform alpha (Homo sapiens, UniProt P48729); type: functional
[34] = molecular target: Dual specificity protein kinase CLK4 (Homo sapiens, UniProt Q9HAZ1); type: functional
[35] = molecular target: Macrophage-stimulating protein receptor (Homo sapiens, UniProt Q04912); experiment: Navigating the Kinome. Panel member name: MST1R; type: functional
[36] = molecular target: Leukocyte tyrosine kinase receptor (Homo sapiens, UniProt P29376); experiment: Navigating the Kinome. Panel member name: LTK; type: functional
[37] = molecular target: BDNF/NT-3 growth factors receptor (Homo sapiens, UniProt Q16620); type: functional;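 also: NTRK2 measured as one member of a broad kinome-wide kinase profiling panel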
Sequence of BDNF/NT-3 growth factors receptor (Q16620 whole entry): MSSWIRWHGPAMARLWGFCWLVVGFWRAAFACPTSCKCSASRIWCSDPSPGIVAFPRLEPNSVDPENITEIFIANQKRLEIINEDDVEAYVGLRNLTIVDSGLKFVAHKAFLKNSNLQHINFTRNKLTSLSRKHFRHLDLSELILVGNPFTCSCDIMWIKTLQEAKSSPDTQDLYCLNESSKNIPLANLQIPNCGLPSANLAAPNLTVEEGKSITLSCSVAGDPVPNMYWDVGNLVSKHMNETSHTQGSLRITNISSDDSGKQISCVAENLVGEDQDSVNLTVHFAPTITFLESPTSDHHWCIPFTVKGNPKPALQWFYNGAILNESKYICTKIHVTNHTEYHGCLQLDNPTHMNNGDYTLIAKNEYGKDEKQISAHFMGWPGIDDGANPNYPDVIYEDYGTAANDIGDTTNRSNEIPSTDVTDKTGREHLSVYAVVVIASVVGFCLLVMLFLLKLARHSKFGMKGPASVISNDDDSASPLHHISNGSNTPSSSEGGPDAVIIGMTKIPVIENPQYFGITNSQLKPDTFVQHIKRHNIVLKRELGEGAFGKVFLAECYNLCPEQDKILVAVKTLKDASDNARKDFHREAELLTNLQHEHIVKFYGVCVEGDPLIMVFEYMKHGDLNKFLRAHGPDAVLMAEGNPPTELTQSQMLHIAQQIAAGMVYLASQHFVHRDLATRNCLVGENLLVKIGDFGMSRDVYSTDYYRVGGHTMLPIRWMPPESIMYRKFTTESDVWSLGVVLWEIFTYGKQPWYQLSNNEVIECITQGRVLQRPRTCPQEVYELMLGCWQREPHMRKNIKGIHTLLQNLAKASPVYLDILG

[38] = molecular target: Serine/threonine-protein kinase SIK2 (Homo sapiens, UniProt Q9H0K1); experiment: Navigating the Kinome. Panel member name: SIK2; type: functional
Sequence of Serine/threonine-protein kinase SIK2 (Q9H0K1 whole entry): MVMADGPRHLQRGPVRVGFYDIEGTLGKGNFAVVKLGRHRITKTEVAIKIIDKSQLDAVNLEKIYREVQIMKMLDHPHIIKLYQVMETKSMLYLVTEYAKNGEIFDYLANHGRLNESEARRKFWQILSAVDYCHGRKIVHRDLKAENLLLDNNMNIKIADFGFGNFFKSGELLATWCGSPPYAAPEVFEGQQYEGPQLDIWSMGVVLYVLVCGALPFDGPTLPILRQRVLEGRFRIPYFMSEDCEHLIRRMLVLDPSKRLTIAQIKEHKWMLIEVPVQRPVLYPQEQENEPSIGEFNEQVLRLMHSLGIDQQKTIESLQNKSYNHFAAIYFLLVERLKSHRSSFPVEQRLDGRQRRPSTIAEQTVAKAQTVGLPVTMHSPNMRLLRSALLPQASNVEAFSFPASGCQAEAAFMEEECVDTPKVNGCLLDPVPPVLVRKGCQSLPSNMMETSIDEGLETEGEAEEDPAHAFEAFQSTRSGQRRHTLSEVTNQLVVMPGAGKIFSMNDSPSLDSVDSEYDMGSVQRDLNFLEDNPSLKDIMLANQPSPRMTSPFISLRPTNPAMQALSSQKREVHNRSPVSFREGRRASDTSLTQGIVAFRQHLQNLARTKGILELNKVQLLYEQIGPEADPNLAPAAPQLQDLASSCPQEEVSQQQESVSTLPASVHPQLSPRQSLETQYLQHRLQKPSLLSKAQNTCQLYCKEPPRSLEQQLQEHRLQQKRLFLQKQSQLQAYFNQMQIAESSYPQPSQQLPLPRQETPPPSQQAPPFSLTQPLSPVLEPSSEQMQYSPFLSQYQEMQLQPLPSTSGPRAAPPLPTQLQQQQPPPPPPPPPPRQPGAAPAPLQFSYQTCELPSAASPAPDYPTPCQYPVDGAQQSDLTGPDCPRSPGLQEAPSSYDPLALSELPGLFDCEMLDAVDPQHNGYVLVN

[39] = molecular target: Serine/threonine-protein kinase D3 (Homo sapiens, UniProt O94806); type: functional;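 also: determined within a kinase panel screen, with PRKCN as the panel member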
[40] = molecular target: MAP/microtubule affinity-regulating kinase 3 (Homo sapiens, UniProt P27448); type: functional;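 also: MARK3 affinity measured as one member of a kinome panel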
[41] = molecular target: Mitogen-activated protein kinase kinase kinase kinase 2 (Homo sapiens, UniProt Q12851); type: functional;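 also: measured as one member of a kinome-wide kinase panel, with MAP4K2 as the panel entry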
[42] = molecular target: Tyrosine-protein kinase receptor TYRO3 (Homo sapiens, UniProt Q06418); type: functional;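 also: TYRO3 value obtained as one member of a kinome-wide profiling panel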
[43] = molecular target: Death-associated protein kinase 3 (Homo sapiens, UniProt O43293); type: functional;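 also: measured as one member of a kinome-wide profiling panel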
[44] = molecular target: Glycogen synthase kinase-3 alpha (Homo sapiens, UniProt P49840); type: functional;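 also: GSK3A result taken from a broad kinome-wide kinase panel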
[45] = molecular target: Proto-oncogene tyrosine-protein kinase ROS (Homo sapiens, UniProt P08922); type: functional;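 also: ROS1 tested as one member of a kinome-wide kinase panel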
[46] = molecular target: Dual specificity tyrosine-phosphorylation-regulated kinase 1B (Homo sapiens, UniProt Q9Y463); experiment: Navigating the Kinome. Panel member name: DYRK1B; type: functional
[47] = molecular target: MAP/microtubule affinity-regulating kinase 4 (Homo sapiens, UniProt Q96L34); experiment: Navigating the Kinome. Panel member name: MARK4; type: functional
[48] = molecular target: Serine/threonine-protein kinase TAO1 (Homo sapiens, UniProt Q7L7X3); type: functional
[49] = molecular target: Maternal embryonic leucine zipper kinase (Homo sapiens, UniProt Q14680); type: functional

Structure (SMILES): COC(=O)C1=C(C)N(Cc2ccccc2)C(NCc2cccc(C(F)(F)F)c2)=N[C@H]1c1cccc(F)c1
- EC50 [1]: 11 µM (active)
- EC50 (HEK293 [2]): > 54.7 µM (inactive)
- EC50 [3]: 8.28 µM (active)
- EC50 (Insulin-degrading enzyme [4]): > 54.7 µM (inactive)
- IC50 [5]: > 20 µM (inactive)
- EC50 (BJ [6]): > 133 µM (inconclusive)
- EC50 [7]: > 120 µM (not active)
- EC50 [8]: 9.59 µM (inconclusive)
- AC50 (INS1): 6.83 µM (active)
- EC50 (BJ [9]): > 150 µM (inconclusive)
- IC50 (HEK293 [10]): 11.3 µM (inactive)
- EC50 (BJ [11]): 4.9 µM (active)
- EC50 (BJ [12]): 5.26 µM (inconclusive)
- EC50 (Insulin-degrading enzyme [13]): 9.71 µM (active)
- IC50 [14]: 1.85 µM (active)

Structure (SMILES): S=C(NCc1ccccn1)Nc1ccc(Br)cc1Cl
- IC50 [15]: 1.58 µM (active)
- IC50 [16]: 3.84 µM (active)
- IC50 [17]: > 66 µM (inactive)
- IC50 [18]: > 66 µM (inactive)

Structure (SMILES): CCOc1cc(N2CCOCC2)c(OCC)cc1NC(=O)COC(=O)[C@H](Cc1c[nH]c2ccccc12)NC(C)=O
- AC50 [19]: 19.5 µM (active)

Structure (SMILES): COc1ccc(-c2nc3ccccc3c(=O)n2CCOc2ccc(C)cc2C)cc1
- EC50 [20]: 15.2 µM (active)

Structure (SMILES): CCCCn1c(N)c(N(CCC(C)C)C(=O)C2CCCN(C(=O)c3ccc(Cl)cc3)C2)c(=O)[nH]c1=O (stereo not given)
- EC50 [21]: 21.3 µM (active)

Structure (SMILES): COc1ccc(Oc2c(Cl)cnn(Cc3cccc4ccccc34)c2=O)c(F)c1
- IC50 [22]: 6.24 µM (active)

Structure (SMILES): CCOC(=O)c1c(NC(=O)C2C(C)(C)C2(C)C)sc2cnccc12
- Ki [23]: 6.31 µM (active)
- Ki [24]: 6.31 µM (active)
- Ki [25]: 3.98 µM (active)
- Ki [26]: 2.51 µM (active)

Structure (SMILES): CCCCn1c(=O)c2ccccc2n2c(SCCS(=O)(=O)c3ccccc3)nnc12
- IC50 [27]: > 99 µM (inactive)
- IC50 [28]: > 99 µM (inactive)

Structure (SMILES): Cn1cc(Nc2ncc(Cl)c(Nc3ccccc3)n2)cn1
- Ki [29]: 2 µM (active)
- Ki [30]: 1.58 µM (active)

Structure (SMILES): CCc1nc2sc3c(c2c2nnc(S)n12)CCC(C)C3 (stereo not given)
- IC50 [31]: > 99 µM (inactive)
- IC50 [32]: > 99 µM (inactive)

Structure (SMILES): Nc1nnc(-c2ccccc2)c(N)n1
- Ki [33]: 20 µM (active)
- Ki [34]: 39.8 µM (active)

Structure (SMILES): Nc1nc(Nc2ccc(S(N)(=O)=O)cc2)nn1C(=O)c1c(F)cccc1F [JNJ-7706621]
- Ki [35]: 0.1 µM (active)
- Ki [36]: > 1.58 µM (inactive)
- Ki [37]: 2 µM (active)
- Ki [38]: 0.251 µM (active)
- Ki [39]: 2 µM (active)
- Ki [40]: 0.794 µM (active)
- Ki [41]: 1.58 µM (active)
- Ki [42]: 0.794 µM (active)
- Ki [43]: 2 µM (active)
- Ki [44]: 0.158 µM (active)
- Ki [45]: 0.501 µM (active)
- Ki [46]: > 2 µM (inactive)
- Ki [47]: 0.1 µM (active)
- Ki [48]: 0.0251 µM (active)
- Ki [49]: 0.631 µM (active)
